Target: full-length FhlA (Escherichia coli, UniProt P19323)
Format: binding
Details: 32 uM protein; 10 mM Tris pH 8, 100 mM NaCl, 5 mM MgCl2, on ice; labelled compound

full-length FhlA, sequence (P19323 whole entry): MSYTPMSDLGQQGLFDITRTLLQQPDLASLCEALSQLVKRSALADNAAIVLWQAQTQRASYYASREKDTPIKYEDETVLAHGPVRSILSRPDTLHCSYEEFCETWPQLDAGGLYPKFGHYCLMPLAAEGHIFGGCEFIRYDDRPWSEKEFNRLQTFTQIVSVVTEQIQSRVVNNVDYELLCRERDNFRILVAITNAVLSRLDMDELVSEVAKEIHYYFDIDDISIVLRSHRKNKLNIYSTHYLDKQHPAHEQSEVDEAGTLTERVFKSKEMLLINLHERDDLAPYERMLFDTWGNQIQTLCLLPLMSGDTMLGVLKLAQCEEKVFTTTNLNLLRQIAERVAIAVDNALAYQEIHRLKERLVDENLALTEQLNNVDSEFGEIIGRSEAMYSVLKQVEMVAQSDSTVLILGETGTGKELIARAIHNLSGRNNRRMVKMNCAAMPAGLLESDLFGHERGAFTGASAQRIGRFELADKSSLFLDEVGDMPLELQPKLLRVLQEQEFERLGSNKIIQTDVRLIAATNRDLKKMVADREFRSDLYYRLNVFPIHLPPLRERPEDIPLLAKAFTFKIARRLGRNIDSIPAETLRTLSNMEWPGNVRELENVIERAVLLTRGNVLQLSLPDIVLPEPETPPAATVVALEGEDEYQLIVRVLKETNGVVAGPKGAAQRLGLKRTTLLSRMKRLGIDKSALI

O=CO [formate]
14C-formate DRaCALA: DRaCALA with full-length purified FhlA, and full-length E183K and E363K derivatives produced similar pattern

Source: doi:10.1101/2024.07.24.604796 (bioRxiv, 2024)
